Source: patent publication US10590116B2, “3-indolyl furanoids as inhibitors of matrix metalloproteinase-9 for prevention of gastric ulcer and other inflammatory diseases” (Council of Scientific & Industrial Research, priority 2017, dated 2020)

Tests used:
Myeloperoxidase (MPO) = test: Myeloperoxidase assay in gastric tissue; type: in vivo; details: ulcerated mice, gastric tissue homogenate
Procedure: To understand the anti-inflammatory activity of compound 5, the inventors performed Myeloperoxidase (MPO) Assay in mouse of control, diseased and treated. Myeloperoxidase (MPO) activity in the mice gastric tissues was measured by calorimetric assay using guaiacol as the substrate. Briefly, gastric tissue homogenate prepared in 5 mM phosphate buffer was added to 1 mL of reaction buffer containing 0.5 mM H2O2 and 0.4 M guaiacol in 50 mM phosphate buffer, pH 7.4. The changes in the optical density per minute for tetraguaiacol were measured at 470 nm in a Shimadzu spectrophotometer. The results were expressed in units/gram gastric tissue (ε=26.6/mM/cm).
Myeloperoxidase (MPO) activity in the mouse gastric tissue homogenate was assayed colorimetrically using guaiacol and H2O2.

[1] = tested on: indomethacin-induced acute gastric ulcers; test: Protection studies of gastric ulceration in vivo (indomethacin-induced acute gastric ulcer, ulcer index); parameters: species or system Balb/c mice; details: for inhibition in ulcer index: 4 h
Procedure: Animal experiments were carried out using Balb/c mice (20-25 g). Animals were anesthetized with ketamine (12 mg/kg b.w.) prior to cervical dislocation. Control and experimental animals were fasted for 6 hr with free access to water.
Balb/c mice (20-25 g) bred in-house with free access to food and water was used for all experiments. Experiments were designed to minimize animal suffering and to use the minimum number associated with valid statistical evaluation. Animals were anesthetized with ketamine (12 mg/kg b.w.) followed by cervical dislocation. Animal experiments were carried out following the guidelines of animal ethics committee of the institute. Control and experimental animals were fasted for 6 h with free access to water.
Before ulcer induction, animals of both control and experimental groups were kept separately in standard controlled conditions. Acute gastric ulcers were induced by oral administration of indomethacin at a dose of 80 mg/kg b.w. The control group received the vehicle only (olive oil), whereas the experimental group received indomethacin for gastric ulceration. After 4 h, the animals were sacrificed and gastric lesions in the fundic stomach were scored and expressed as obtained by counting the number of red bands/dots as follows: 0=no pathology; 1=a small pinhead ulcer spot; and 2-5=a band like lesion of 2-5 mm length. Total score become ˜50 when ulcer is severe. The sum of the total scores as divided by the number of animals was expressed as the mean ulcer index. Formulations were administered orally 30 min prior to indomethacin treatment to check the gastroprotective effect. Among all the chemical compositions of 3-indolyl furanoids synthesized (table 1), compounds 1, 2, 5, 8, 9 and 12 were tested for prevention studies against gastric inflammation in vivo.

[2] = Pharmacokinetic profiling in rat; type: in vivo, Sprague Dawley rats; details: single dose 250 mg/kg oral gavage, male rats, plasma
Procedure: Male sprague dawley rats (n=6) received a single dose of 250 mg/kg body weight compound 5 by oral gavage. Compound 5 levels in plasma were determined by HPLC. Values represent mean plasma levels.
Column chromatography was carried out using silica gel 100-200 mesh. Analytical thin-layer chromatography (TLC) was performed with silica gel 60 F254 aluminium sheets. ^1H NMR spectra were recorded on a Bruker DPX 300 MHz or Bruker DRX 600 MHz NMR instrument at ambient temperature in CDCl3, CD3OD or DMSO-d6. ^13C NMR spectra were recorded at 75 MHz or 150 MHz at ambient temperature. The chemical shifts were recorded in parts per million (ppm) with TMS as internal reference. All ^13C NMR spectra were recorded with complete proton decoupling. Mass spectral data refer to EIMS or ESIMS and are recorded in m/z unit. DI-EIMS were recorded on a GC-MS Shimadzu-QP5050A and ESIMS were done on a Waters® Micromass® Q-TOF Mass Spectrometer. Melting points are recorded on a SPAC-N SERVICE (India) melting point apparatus (Laboratory device) in open capillaries and are uncorrected. Elemental analyses were performed by Perkin-Elmer CHN/O analyzer model 2400, series II. HPLC analysis of plasma samples were performed on a Shimadzu Model SPD-M10Avp equipped with LC-10ATvp HPLC pump, Hamamatsu Deuterium Lamp type L6585 photodiode array detector. Chromatography was achieved using a Phenomenex Luna 5 μm C18 (2) 100 Å LC Column (150×4.6 mm I. D.) with Guard Cartridges C18 (4×3.0 mm). The mobile phase consisted of 15% water in acetonitrile, and solutes were eluted using a flow rate 1.0 mL/min. The column was re-equilibrated at initial conditions for 5 min before the next analysis. Analytical HPLC conditions were as follows: column, Pheomenex C18 (250 mm×4.6 mm, particle size 5 μm) with solvent combination of 0.5-1.0% TFA in water:acetonitrile in various ratios at a flow rate of 0.5-1.0 mL/min, detection at 254 nm. Purity of tested compounds was established by analytical reverse phase HPLC, confirming a purity of at least 95%. Unless otherwise stated, reagents were procured from commercial sources and were used without further purification.
In order to assess the time course of action and disposition of compound 5 in vivo, pharmacokinetic studies in Sprague Dawley rats were conducted. The curve was linear in the range investigated and the extraction efficiency was greater than 70%.

[3] = Toxicity studies through repeat daily dosing; type: in vivo
Procedure: FIG. 4 gives the In vivo toxicity test. Male and female BALB/c mice (n=10) received indicated doses of compound 5 by daily gavage. Control mice received vehicle (olive oil). Body weights were determined 4 days before the start of the treatment and then throughout the period of treatment until day 25. Data points represent mean body weight.
The purpose of this study was to assess the efficacy of prolonged oral compound 5 treatment and ascertaining adverse impact, if any. […] The female mice were, on an average, 4 g lighter than male mice which is consistent with the common sex-specific weight difference.

protein carbonyl = test: Measurement of protein carbonyl in gastric tissue homogenate; type: in vivo; details: 50 mg/kg bw, ulcerated mice
Procedure: Protein carbonyl groups are considered as biomarkers of oxidative stress. Protein oxidation was measured as carbonyl content in the low speed supernatant of the gastric tissue homogenate. The stomach from control, stress ulcerated, and compound 5 treated (50 mg/kg bw) mice were homogenized in 50 mM sodium phosphate buffer pH 7.4 in a Potter-Elvehjem glass homogenizer for 2 min to get 20% homogenate. After centrifugation at 600 g for 10 min, the proteins from 1.0 mL of the supernatant were precipitated with 10% trichloroacetic acid and allowed to react with 0.5 mL of 10 mM 2,4-dinitrophenyl hydrazine for 1 h. After precipitation with 20% trichloroacetic acid, proteins were washed thrice with a mixture of ethanol-ethyl acetate (1:1), dissolved in 1.0 mL of a solution containing 6 M guanidine HCl in 20 mM potassium phosphate adjusted to pH 2.3 with trifluroacetic acid, and centrifuged. The absorbance of the supernatant was read at 362 nm for carbonyl content (E=22,000/M/cm).
The fundic stomach homogenate was used for measurement of protein carbonyl formation as nmol/mg protein.

[4] = 150 or 300 mg/kg body weight/day for 25 days, daily gavage

With COc1cccc2[nH]cc(-c3cc(-c4ccccc4)oc3-c3ccccc3)c12 [compound 5, 4-methoxy-3-(2,5-diphenylfuran-3-yl)-1H-indole] the Myeloperoxidase (Myeloperoxidase (MPO)) was 9.13±0.33 units/gram tissue, the Myeloperoxidase (Myeloperoxidase (MPO); listed as Compound 5) was 9.13 ± 0.33 units/gram tissue and the “inhibition in ulcer index” value ([1]; 10 mg/kg bw oral prior to indomethacin 80 mg/kg) was 40%. For the same compound, the “inhibition in ulcer index” value ([1]; 25 mg/kg bw oral prior to indomethacin 80 mg/kg) was 80%, the inhibition in vivo at 50 mg/kg ([1]; Mus musculus, 50 mg/kg body weight oral in olive oil, indomethacin 80 mg/kg, scored after 4 h, Balb/c mice) was 95% and the Cmax ([2]; Sprague-Dawley, rat) was 104 µg/mL. The Tmax ([2]; Sprague-Dawley, rat) was about 6 h, the half-life ([2]; Sprague-Dawley, rat) was 420 min and the “area under the curve” value [2] was 1273.8 µg·h/mL. The “body weight, treated versus control groups” value [3, 4] was “no differences in body weight”, the “clinical signs of toxicity (lethargy, abdominal distension, fur loss, hunching)” value [3, 4] was “no clinical signs of toxicity” and the “toxicity, general statement” value ([3]; mouse, in vivo) was “non-toxic”. For the same compound, the Protein carbonylation (protein carbonyl) was 1.58±0.18 nmol/mg protein and the Protein carbonylation (protein carbonyl; listed as Compound 5) was 1.58 ± 0.18 nmol/mg protein.
